Results: a melting point compilation (Tetko et al.; mined from patent text by program, amines drawn as free bases though some values may be those of a salt)

Compared with `O=C(NCCCCCCOC(=O)N1CCC2(CCCC2)CC1)OC1CCN(C(=O)Oc2ccc([N+](=O)[O-])cc2)CC1`, `CC(=O)c1ccc(OCCCCNS(=O)(=O)c2ccc(Br)cc2)cc1` is higher in melting point: 113 to 114 °C for the first, 129 to 130 °C for the second.

First: O=C(O)c1csc(-c2ccc3cc(O)c(C45CC6CC(CC(C6)C4)C5)cc3c2)c1
Second: CC(C)CCN1C(=O)C(NC(=O)Oc2cccc(N(C)C)c2)C(=O)N(CC23CC4CC(CC(C4)C2)C3)c2ccccc21 (centres undefined)
The melting point of the first is higher: 312 to 314 °C for the first, 172 to 173 °C for the second.

First: Cn1ncnc1COc1nc2c(cc1-c1ccc(F)cc1)nnn2-c1ccccc1F
Second: CC(CCOc1c(-c2ccc(S(C)(=O)=O)cc2)cnn(-c2ccc(F)c(F)c2)c1=O)C(F)(F)F (centres undefined)
The melting point of the first is higher: 142 to 145 °C for the first, 126 to 128 °C for the second.

First: CC#CC=NNC(=O)c1cc(OC)cc(Oc2cccc(C(F)(F)F)c2)n1
Second: COC(=O)c1cc2cccc(OCc3cccnc3)c2o1
The melting point of the first is higher: 147 to 148 °C for the first, 117 to 118 °C for the second.

Compared with `CCN(CC)C(=O)CNc1cc(N)ccc1OC`, `CC(C)(C)OC(=O)NCC(=O)NNc1ccc(N)cc1` is higher in melting point: 111 °C for the first, 144 °C for the second.

First: COc1cc(C(=O)N2CCC(CCN3CCC(Nc4nc5ccccc5n4Cc4ccccn4)CC3)(c3ccc(F)c(F)c3)C2)cc(OC)c1OC (centres undefined)
Second: COc1ccc(OC)c(C(=O)c2ccc(OCc3ccccc3)cc2)c1
The melting point of the first is lower: 101 to 107 °C for the first, 111 to 113 °C for the second.

Compared with `O=C(NCc1ccc(F)cc1)c1ccnc(N2CCN(Cc3ccc(F)cc3F)C2=O)c1`, `O=c1cc(O)c2cccnc2n1Cc1ccccc1` is higher in melting point: 171 to 173 °C for the first, 250 to 253 °C for the second.

First: O=C(O)Cc1cnn(-c2ccccc2)c1-c1ccc(Cl)cc1
Second: O=C(O)C(Cc1ccccc1)Cc1ccc([N+](=O)[O-])cc1 (centres undefined)
The melting point of the first is higher: 185 to 186 °C for the first, 104 to 105 °C for the second.

Compared with `CCOC(=O)CCC(=O)CSc1nc2cc(Cl)c(F)cc2c(O)c1C(=O)OCC`, `CCc1cc(Cc2cnc(N)nc2N)cc(CC)c1O` is higher in melting point: 144 °C for the first, 200 to 202 °C for the second.

First: COc1ccc(Nc2nc(NC3CCCCCC3)nc(Oc3ccc(C(C)=O)cc3Cl)n2)cc1Cl
Second: COc1ncc(-c2cc(N3CCOCC3)nc(-n3c(C(F)F)nc4c(OC)cccc43)n2)cn1
The melting point of the first is lower: 186 to 196 °C for the first, 238 to 241 °C for the second.

First: O=Cc1c2ccccc2cc2sccc12
Second: COc1cc2ccccc2[nH]c1=O
The melting point of the first is lower: 113 °C for the first, 188 to 189 °C for the second.

First: CC(Oc1ccc(-c2cccc(NC(N)=O)c2)cc1)C(O)CCc1cccnc1 (centres undefined)
Second: CCCCNC(=O)Nc1cccc(-c2ccnc3c(C(=O)c4cccs4)cnn23)c1
The melting point of the first is lower: 75 to 76 °C for the first, 158 to 160 °C for the second.

First: CN(Sc1nc2ccccc2s1)C(C)(C)C
Second: CC1(C)Oc2ccccc2C(c2ccc[nH]c2=O)C1O (centres undefined)
The melting point of the first is lower: 56 to 58 °C for the first, 244 to 246 °C for the second.

First: CC(C)NC(=O)C1(C(C)C)CCCC1C (centres undefined)
Second: COC(=O)C1CSCC1=O (centres undefined)
The melting point of the first is higher: 90.5 to 91.5 °C for the first, 51 °C for the second.

Compared with `Cc1c2n(c3ccccc13)C(=O)C(C)(Cc1ncn(C(c3ccccc3)(c3ccccc3)c3ccccc3)c1C)CC2` (centres undefined), `CN(C(=S)N[C@@H](Cc1ccc(NC(=O)c2c(Cl)cncc2Cl)cc1)C(=O)O)c1ccccc1Cc1ccccc1` is higher in melting point: 116 to 118 °C for the first, 198 °C for the second.

First: CNc1nc(S(=O)(=O)Nc2c(Cl)cccc2Cl)n[nH]1
Second: Cn1c(C(N)=O)c2n(c1=O)-c1ccc(Cl)cc1C(c1ccccc1Cl)=NC2
The melting point of the first is higher: 285 to 287 °C for the first, 158 to 160 °C for the second.

First: COc1ccc2sc(CC3(O)C4CC5CC(C4)CC3C5)nc2c1 (centres undefined)
Second: O=C1CCCN1CC1CCN(c2nc(C(F)(F)F)ncc2O)CC1
The melting point of the first is lower: 140 to 142 °C for the first, 213 to 215 °C for the second.

`CCCCOc1ccc2[nH]c3c([N+](=O)[O-])ccc(Cl)c3c(=O)c2c1` and `Cc1ccc(S(=O)(=O)OCC2COc3ccc([N+](=O)[O-])c(N)c3O2)cc1` (centres undefined) cannot be ordered by melting point: 154 to 155 °C for the first, 155 °C for the second.

Compared with `Cc1cc(C)c(Nc2nc(C)ccc2S(=O)(=O)c2ccc(OCc3c(F)cccc3[N+](=O)[O-])cc2)c(C)c1`, `CCCCCn1c(C2=CC(=O)c3ccccc3C2=O)ccc1C1=CC(=O)c2ccccc2C1=O` is lower in melting point: 132 to 134 °C for the first, 128 °C for the second.

First: CCC(CC)Nc1nc(NC(C)=O)nc(C(C)(C)F)n1
Second: CCOC(=O)C=CNc1oc2ccc(CC)cc2c(=O)c1C=O
The melting point of the first is lower: 109 to 111 °C for the first, 201 to 203 °C for the second.

Compared with `CC(NC(=O)C(O)c1cc(F)cc(F)c1)C(=O)NC1C(=O)N(C)c2ccccc2N(c2ccccc2)C1=O` (centres undefined), `CCOC(=O)N1C=CN(c2ccccc2)C1C#N` (centres undefined) is lower in melting point: 212 to 213 °C for the first, 109 to 111 °C for the second.

Compared with `O=S(=O)(c1ccc(Br)cc1)N1CCN(CC2CCN(c3ccncc3)CC2)CC1`, `Cc1ccc(N2CCN(c3c(C)c(C)c4c(c3C)CC(C)(CO)O4)CC2)cc1` (centres undefined) is lower in melting point: 179 to 180 °C for the first, 152 to 155 °C for the second.

First: O=CC(=CCl)c1ccc(Cl)cc1
Second: N#Cc1cnc2cc(O)c(O)cc2c1Nc1ccc(Cl)cc1F
The melting point of the first is lower: 38 °C for the first, 270 to 272 °C for the second.

First: N#CC(=NOC(=O)OCC(Cl)(Cl)Cl)c1ccccc1
Second: CC(=O)N[C@@H](CCC(=O)O)C(N)=O
The melting point of the first is lower: 82 to 84 °C for the first, 85 to 87 °C for the second.

`Cc1ccc2c(c1)C1(COc3cc4c(cc31)OCO4)C(=O)N2Cc1ccc(C(F)(F)F)o1` (centres undefined) gave a melting point of 96 to 98 °C.
